Reference: US8663607B2, “Ferrate(VI)-containing compositions and methods of using ferrate(VI)” (Battelle Memorial Institute, priority 2007, dated 2014)

Assay: Stain removal from calcium deficient hydroxyapatite disks (human tooth model), tea stain
Method: Tea staining Solution: 200 mL of high-purity deionized (HPDI) water was heated to boiling in a 500-mL beaker. The beaker was removed from heat and 4 Lipton™ tea bags were added. The tea bags were allowed to soak for 5 minutes. The tea bags were pressed with a spatμLa upon removal to remove liquid.
Tea staining Procedure: A calcium-deficient hydroxyapatite (HAP) disk (Clarkson Chromatography Products) was placed into a 50-mL centrifuge tube with 10 mL of tea solution. The centrifuge tube was gently shaken by hand for 15 minutes. The tea solution was decanted and replaced with 10 mL of HPDI water and vortexed for 30 seconds. The water was decanted and replaced with 10 additional mL of HPDI water and vortexed for 30 seconds. The disk was removed with forceps and patted dry with a tissue. The disk was allowed to air dry at room temperature for at least one hour.
Oxidation resistant chelating buffer: 0.25M 1-Hydroxyethylidenediphosphonic acid (etridonic acid) (Dequest® 2010, Thermphos) (HEPA) was pH adjusted by microtitration with 10N NaOH. 1.28 g of 1-Hydroxyethylidenediphosphonic acid was to a 25-mL volumetric flask and brought to volume with HPDI water. The solution was transferred to a 50-mL beaker with a stir bar and pH adjusted using 10.04N NaOH, monitored with a calibrated pH meter. Aliquat 336® (Cognis) (also suitable is Aliquat 134®) (N-methyl-tri-(n-octyl)ammonium chloride), (N-methyl TOA) or “HEPA” chelating pH Buffer: 2.5-μL of N-methyl TOA was added to 5 mL of pH 7 HEPA buffer and sonicated for 1 minute. pH 7 Sodium Dodecyl Sulfate (SDS)/HEPA Buffer: 10 mg of SDS was added to 5 mL of pH 7 HEPA buffer and sonicated for 1 minute. pH 8 SDS/HEPA Buffer: 10 mg of SDS was added to 5 mL of pH 8 HEPA buffer and sonicated for 1 minute.
• A. A tea stained disk was placed into the bowl of the bowl of a watch glass and 100 μL of pH 7 HEPA buffer was pipetted onto the disk surface. 3.7 mg of potassium ferrate(VI) was added to the disk surface and mixed gently. […] The disk was rinsed at 10 minutes with HPDI water. […] 1 mL of pH 7 HEPA buffer was added followed by 9 mL of HPDI water. 9.7 mg of potassium ferrate(VI) was added. The tube was gently hand shaken for 10 minutes. The disk was removed and rinsed with HPDI water. […] 10 mg of potassium ferrate(VI) was added to 1 mL of pH 7 HEPA buffer in a 50 mL centrifuge tube. 9 mL HPDI water was added, and the solution was shaken for a few seconds followed by the addition of a tea stained HAP disk. The disk was removed at 10 minutes and rinsed with HPDI water. […] 1.3 mg of potassium ferrate(VI) added and mixed into the solution.

[1] = disk A-2: 30 mg calcium carbonate + 250 μL HPDI water, 10 mg, no chelating buffer, rinsed at 5 minutes
[2] = disk A: 100 μL pH 7 HEPA buffer, 3.7 mg added to disk surface, rinsed at 10 minutes
[3] = disk B-1: 10 mg calcium carbonate + 12 mg in 2 mL pH 8 SDS/HEPA buffer, 5 minutes, then 1 mL buffer 45 minutes
[4] = disk B: 1 mL pH 7 HEPA buffer + 9 mL water, 9.7 mg, shaken 10 minutes
[5] = disk E: 100 μL pH 7 HEPA buffer, 1.4 mg, 5 minutes, then 100 μL pH 7 HEPA buffer 5 minutes
[6] = disk F: 100 μL pH 7 HEPA buffer + one drop of N-methyl TOA (emulsion), 1 mg
[7] = disk G: 100 μL N-methyl TOA/HEPA buffer, 0.7 mg, rinsed at 5 minutes, then 100 μL buffer 5 minutes
[8] = disk H: 100 μL N-methyl TOA/HEPA buffer, 1.3 mg, 5 minutes, then 2 x 100 μL buffer 5 minutes each
[9] = disk I: 100 μL N-methyl TOA/HEPA buffer, 1.3 mg (uneven distribution), 5 minutes, then 200 μL buffer
[10] = disk J: 200 μL N-methyl TOA/HEPA buffer, 2.3 mg, 5 minutes, then 200 μL buffer 5 minutes
[11] = disk K: 9.9 mg premixed in 1 mL N-methyl TOA/HEPA buffer, disk fully covered 10 minutes, then 400 μL buffer 45 minutes
[12] = disk L: 100 μL pH 7 SDS/HEPA buffer, 1.3 mg, 10 minutes, then 100 μL buffer ten minutes
[13] = disk M: 1 mL of 29.3 mg in 3 mL pH 7 SDS/HEPA buffer, 3 minutes, then buffer soaks 8 and 35 minutes, extra rinse
[14] = disk N: 1 mL of 29.3 mg in 3 mL pH 7 SDS/HEPA buffer, 3 minutes, then buffer soaks 8 and 35 minutes, extra rinse
[15] = disk P: overnight tea stain, 0.75 mL of 25 mg in 1.5 mL pH 8 SDS/HEPA buffer, 5 minutes, then 1 mL buffer 45 minutes, rinsed again after drying one hour
[16] = disk Q: overnight tea stain, 0.75 mL of 25 mg in 1.5 mL pH 8 SDS/HEPA buffer, 5 minutes, then 1 mL buffer 45 minutes
[17] = disk S: tea stained disk treated the same way as P and Q (replicate)
[18] = disk U: treated the same way as P and Q, then submerged in HPDI water 45 minutes instead of drying

potassium ferrate(VI)
L* (lightness/darkness) [1]: 69.5
a* (blue/red) [1]: 14.4
appearance of disk after treatment [1]: the color was not removed
b* (yellow/green) [1]: 26
reflectance of visible light at 450 nm [1]: 22.036
reflectance of visible light at 750 nm [1]: 64.152
ΔE (versus tea stain) [1]: 29.21
L* (lightness/darkness) [2]: 72
a* (blue/red) [2]: 2.6
appearance of disk after treatment [2]: stained purple with rust stains
b* (yellow/green) [2]: −1.1
reflectance of visible light at 450 nm [2]: 44.547
reflectance of visible light at 750 nm [2]: 61.521
ΔE (versus tea stain) [2]: 13.57
L* (lightness/darkness) [3]: 100.8
a* (blue/red) [3]: 0.5
appearance of disk after treatment [3]: All stains were removed
b* (yellow/green) [3]: 0.1
reflectance of visible light at 450 nm [3]: 100.124
reflectance of visible light at 750 nm [3]: 103.677
ΔE (versus B-2, tea stained) [3]: 15.29
L* (lightness/darkness) [4]: 79.1
a* (blue/red) [4]: 1.6
appearance of disk after treatment [4]: stained purple with rust stains
b* (yellow/green) [4]: −2
reflectance of visible light at 450 nm [4]: 57.457
reflectance of visible light at 750 nm [4]: 69.889
ΔE (versus tea stain) [4]: 8.29
appearance of disk after treatment (disk C: 10 mg premixed in 1 mL pH 7 HEPA buffer + 9 mL water, disk removed at 10 minutes): stained purple
L* (lightness/darkness) [5]: 90.1
a* (blue/red) [5]: 1.3
appearance of disk after treatment [5]: lighter purple than previous examples
b* (yellow/green) [5]: −2.2
reflectance of visible light at 450 nm [5]: 77.562
reflectance of visible light at 750 nm [5]: 87.011
ΔE (versus unstained disk) [5]: 4.24
L* (lightness/darkness) [6]: 77
a* (blue/red) [6]: 2.1
appearance of disk after treatment [6]: purple with streaks where mixing occurred
b* (yellow/green) [6]: 0.7
reflectance of visible light at 450 nm [6]: 44.547
reflectance of visible light at 750 nm [6]: 68.873
ΔE (versus tea stain) [6]: 8.65
L* (lightness/darkness) [7]: 94
a* (blue/red) [7]: 0.6
appearance of disk after treatment [7]: purple color was removed but brown staining observed
b* (yellow/green) [7]: −0.1
reflectance of visible light at 450 nm [7]: 82.923
reflectance of visible light at 750 nm [7]: 92.128
ΔE (versus tea stain) [7]: 10.88
L* (lightness/darkness) [8]: 93.6
a* (blue/red) [8]: 1.3
appearance of disk after treatment [8]: light brown color
b* (yellow/green) [8]: 0.6
reflectance of visible light at 450 nm [8]: 82.479
reflectance of visible light at 750 nm [8]: 93.202
ΔE (versus tea stain) [8]: 10.06
L* (lightness/darkness) [9]: 91.2
a* (blue/red) [9]: −0.8
appearance of disk after treatment [9]: More decoloring was observed at the center
b* (yellow/green) [9]: −4.7
reflectance of visible light at 450 nm [9]: 83.889
reflectance of visible light at 750 nm [9]: 83.121
ΔE (versus tea stain) [9]: 11.69
L* (lightness/darkness) [10]: 87.5
a* (blue/red) [10]: −0.1
appearance of disk after treatment [10]: Rust spots observed
b* (yellow/green) [10]: −3.9
reflectance of visible light at 450 nm [10]: 44.547
reflectance of visible light at 750 nm [10]: 78.071
ΔE (versus tea stain) [10]: 9.10
L* (lightness/darkness) [11]: 100.8
a* (blue/red) [11]: −0.3
appearance of disk after treatment [11]: Significant color removal was observed
b* (yellow/green) [11]: −2.1
reflectance of visible light at 450 nm [11]: 102.827
reflectance of visible light at 750 nm [11]: 103.311
ΔE (versus tea stain) [11]: 17.77
L* (lightness/darkness) [12]: 99.1
a* (blue/red) [12]: −0.4
appearance of disk after treatment [12]: Most of the color was removed from the center of the disk
b* (yellow/green) [12]: −2.2
reflectance of visible light at 450 nm [12]: 99.384
reflectance of visible light at 750 nm [12]: 98.847
ΔE (versus tea stain) [12]: 16.32
L* (lightness/darkness) [13]: 100.1
a* (blue/red) [13]: 0
b* (yellow/green) [13]: −1.9
reflectance of visible light at 450 nm [13]: 100.820
reflectance of visible light at 750 nm [13]: 102.480
ΔE (versus disk 0) [13]: 12.15
L* (lightness/darkness) [14]: 100.6
a* (blue/red) [14]: −0.3
b* (yellow/green) [14]: −1.4
reflectance of visible light at 450 nm [14]: 101.538
reflectance of visible light at 750 nm [14]: 101.930
ΔE (versus disk O) [14]: 12.63
L* (lightness/darkness) [15]: 103.5
a* (blue/red) [15]: −2.1
b* (yellow/green) [15]: −3.2
reflectance of visible light at 450 nm [15]: 111.059
reflectance of visible light at 750 nm [15]: 103.081
ΔE (versus disk R) [15]: 25.40
L* (lightness/darkness) [16]: 101.8
a* (blue/red) [16]: −1.2
b* (yellow/green) [16]: −0.7
reflectance of visible light at 450 nm [16]: 103.784
reflectance of visible light at 750 nm [16]: 101.164
ΔE (versus disk R) [16]: 22.83
L* (lightness/darkness) [17]: 99.3
a* (blue/red) [17]: 0
reflectance of visible light at 450 nm [17]: 98.555
reflectance of visible light at 750 nm [17]: 98.659
L* (lightness/darkness) [18]: 96.9
a* (blue/red) [18]: 0.4
appearance of disk after treatment [18]: Color was removed as effectively as with a dried sample
b* (yellow/green) [18]: 0.3
reflectance of visible light at 450 nm [18]: 89.892
reflectance of visible light at 750 nm [18]: 94.030
ΔE (versus tea stain) [18]: 13.44
